Data on 19 compounds can be found in US11285156B2, “Substituted piperazines as KRAS G12C inhibitors” (Amgen Inc., priority 2018, dated 2022).

Like-named read-outs stand apart in the source and are kept apart here. Some results are limits rather than exact numbers.

The subject of assay [1] is Phosphorylation of ERK1/2 in A549 cells. Nature of the assay: Phospho-ERK1/2 MSD assay in A549 cells. The format is cell-based. Particulars: read-out: p-ERK IC50 (2 h, A549; μM), 2 h compound treatment, A549 cells, EGF stimulated. In a few lines:
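MSD electrochemiluminescent read-out of phospho-ERK1/2 in RIPA lysates. Cells in RPMI 1640 with 10% FBS received titrated compound for 2 or 4 h, then 10 ng/mL EGF for 10 min before ice-cold PBS wash and lysis.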

Assay [2] concerns the target GDP-bound KRAS protein (aa 1-169), containing both G12C and C118A amino acid substitutions (Homo sapiens (Human), UniProt P01116, C118A/G12C). Briefly: Coupled nucleotide exchange assay (SOS-mediated nucleotide exchange, AlphaScreen). The conditions noted are these: 5 min compound pre-incubation; for IC50: read-out: Coupled exchange IC50 (5 min; μM). It is filed as biochemical. Background: Alpha assays give light when donor and acceptor beads are brought close together.
Method: Coupled Nucleotide Exchange Assay:
Following compound pre-incubation, purified SOS protein (aa 564-1049) and GTP (Roche 10106399001) were added to the assay wells and incubated for an additional 30 min (for 5 min compound pre-incubation) or 1 hour (for 2 hour compound pre-incubation). […] The assay plates were then read on a PerkinElmer EnVision Multilabel Reader, using AlphaScreen® technology, and data were analyzed using a 4-parameter logistic model to calculate IC50 values.

Assay [3] deals with Phosphorylation of ERK1/2 in MIA PaCa-2 cells. Nature of the assay: Phospho-ERK1/2 MSD assay in MIA PaCa-2 cells. The conditions noted are these: read-out: p-ERK IC50 (2 h, MiaPaCa-2; μM), 2 h compound treatment, MIA PaCa-2 cells, EGF stimulated. It is filed as cell-based. In short, it runs like this:
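Phospho-ERK1/2 measured by MSD electrochemiluminescence kit in RIPA lysates of MIA PaCa-2 cells. Cells were treated with compound titrations for 2 or 4 h at 37 °C, 5% CO2, followed by a 10 min pulse of 10 ng/mL EGF.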

Sequence of GDP-bound KRAS protein (aa 1-169), containing both G12C and C118A amino acid substitutions (P01116 other isoform, or with tags, fused parts or gaps G12C/C118A): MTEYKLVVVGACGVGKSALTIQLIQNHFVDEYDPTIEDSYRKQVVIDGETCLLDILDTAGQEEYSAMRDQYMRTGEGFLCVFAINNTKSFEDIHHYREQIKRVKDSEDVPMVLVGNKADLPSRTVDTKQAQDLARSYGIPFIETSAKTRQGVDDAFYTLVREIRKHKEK

`C=CC(=O)N1C[C@H](C)N(c2nc(=O)n(C(C)C)c3nc(-c4ccccc4F)c(Cl)cc23)C[C@H]1C` [Example 55-60, 6-Chloro-4-[(2S,5R)-2,5-dimethyl-4-prop-2-enoyl-piperazin-1-yl]-7-(2-fluorophenyl)-1-isopropyl-pyrido[2,3-d]pyrimidin-2-one]: the IC50 is over 7.5 µM in assay [1] (Homo sapiens, A549, 2 h); 7.85 µM in assay [2]; 7.77 µM in assay [3] (Homo sapiens, MIA PaCa-2, 2 h).
For `C=CC(=O)N1C[C@H](C)N(c2nc(=O)n(-c3c(C)ccnc3C(C)C)c3nc(-c4c(F)cccc4C(N)=O)c(F)cc23)C[C@H]1C` (atropisomer, axis not shown; (M)) [Example 94-19, (M)-2-[4-[(2S,5R)-2,5-Dimethyl-4-prop-2-enoyl-piperazin-1-yl]-6-fluoro-1-(2-isopropyl-4-methyl-3-pyridyl)-2-oxo-pyrido[2,3-d]pyrimidin-7-yl]-3-fluoro-benzamide] the same measures were over 7.5 µM, 0.067 µM and 0.518 µM.
As for `C=CC(=O)N1C[C@H](C)N(c2nc(=O)n(-c3c(C)ccnc3C(C)C)c3nc(-c4cc(Cl)ccc4F)c(F)cc23)C[C@H]1C` (atropisomer, axis not shown; (M)) [Example 94-5, (M)-7-(5-chloro-2-fluoro-phenyl)-4-[(2S,5R)-2,5-dimethyl-4-prop-2-enoyl-piperazin-1-yl]-6-fluoro-1-(2-isopropyl-4-methyl-3-pyridyl)pyrido [2,3-d]pyrimidin-2-one], the half-maximal inhibitory concentration (IC50) in assay [1] (Homo sapiens, A549, 2 h) is over 7.5 µM; in assay [2], 0.708 µM; in assay [3] (Homo sapiens, MIA PaCa-2, 2 h) it was 0.265 µM.
In the case of `C=CC(=O)N1C[C@H](C)N(c2nc(=O)n3c4nc(c(Cl)cc24)-c2ccccc2C/C=C\Cc2ccccc2-3)C[C@H]1C` (single isomer, unassigned) [Example 146-3-4], the IC50 in assay [1] was over 7.5 µM; in assay [2] it was 7.96 µM; in assay [3], 1.26 µM.
Take `C=CC(=O)N1C[C@H](C)N(c2nc(=O)n(-c3c(C(C)C)cccc3[S+](C)[O-])c3nc(-c4ccccc4F)c(Cl)cc23)C[C@H]1C` (stereo partly drawn) [Example 103-3, 4-((2S,5R)-4-acryloyl-2,5-dimethylpiperazin-1-yl)-6-chloro-7-(2-fluorophenyl)-1-(2-isopropyl-6-(methylsulfinyl)phenyl)pyrido[2,3-d]pyrimidin-2(1H)-one]: the IC50 in assay [1] (Homo sapiens, A549, 2 h) was over 7.5 µM; in assay [3] (Homo sapiens, MIA PaCa-2, 2 h), 0.143 µM. In addition, in assay [2], the “Coupled exchange IC50 (5 min; μM)” value is 0.677 µM.
Consider `C=CC(=O)N1C[C@H](C)N(c2nc(=O)n(-c3c(C(C)C)nc(NC)nc3C(C)C)c3nc(-c4ccccc4F)c(Cl)cc23)C[C@H]1C` [Example 107-1, 4-((2S,5R)-4-Acryloyl-2,5-dimethylpiperazin-1-yl)-6-chloro-1-(4,6-diisopropyl-2-(methylamino)pyrimidin-5-yl)-7-(2-fluorophenyl)pyrido[2,3-d]pyrimidin-2(1H)-one], for which the IC50 in assay [1] (Homo sapiens, A549, 2 h) is 5.57 µM; in assay [2], 0.026 µM; in assay [3] (Homo sapiens, MIA PaCa-2, 2 h), 0.064 µM.
In the case of `C=CC(=O)N1C[C@H](C)N(c2nc(=O)n(-c3c(C)ccnc3C(C)C)c3nc(C4CCCCC4)c(Cl)cc23)C[C@H]1C` (atropisomer, axis not shown; (M)) [Example 95-1, (M)-6-Chloro-7-cyclohexyl-4-[(2S,5R)-2,5-dimethyl-4-prop-2-enoyl-piperazin-1-yl]-1-(2-isopropyl-4-methyl-3-pyridyl)pyrido[2,3-d]pyrimidin-2-one], the IC50 is over 7.5 µM in assay [1], 0.053 µM in assay [2] and 0.318 µM in assay [3].
Consider `C=CC(=O)N1C[C@H](C)N(c2nc(=O)n(CC(C)(C)C#N)c3nc(-c4ccccc4F)c(Cl)cc23)C[C@H]1C` [Example 106-8, 3-[6-Chloro-4-[(2S,5R)-2,5-dimethyl-4-prop-2-enoyl-piperazin-1-yl]-7-(2-fluorophenyl)-2-oxo-pyrido[2,3-d]pyrimidin-1-yl]-2,2-dimethyl-propanenitrile], for which the half-inhibitory concentration (IC50) was over 7.5 µM in assay [1] (Homo sapiens, A549, 2 h); 3.35 µM in assay [2]; 1.88 µM in assay [3] (Homo sapiens, MIA PaCa-2, 2 h).
For `C=CC(=O)N1C[C@H](C)N(c2nc(=O)n(-c3c(C)ccnc3C(C)C)c3nc(-c4ccccc4NC)c(Cl)cc23)C[C@H]1C` (atropisomer, axis not shown; (M)) [Example 92-25, (M)-6-Chloro-4-[(2S,5R)-2,5-dimethyl-4-prop-2-enoyl-piperazin-1-yl]-1-(2-isopropyl-4-methyl-3-pyridyl)-7-[2-(methylamino)phenyl]pyrido[2,3-d]pyrimidin-2-one] the same measures were over 7.5 µM, 0.04 µM and 0.016 µM.
For `C=CC(=O)N1C[C@H](C)N(c2nc(=O)n(-c3c(C)ccnc3C(C)C)c3nc(-c4ccccc4C(C)=O)c(Cl)cc23)C[C@H]1C` (atropisomer, axis not shown; (M)) [Example 92-41, (M)-7-(2-Acetylphenyl)-6-chloro-4-[(2S,5R)-2,5-dimethyl-4-prop-2-enoyl-piperazin-1-yl]-1-(2-isopropyl-4-methyl-3-pyridyl)pyrido [2,3-d]pyrimidin-2-one] the same measures were 3.75 µM, 0.117 µM and 0.075 µM.
For `C=CC(=O)N1C[C@H](C)N(c2nc(=O)n(-c3c(C)ccnc3C(C)C)c3nc(-c4cc(F)ccc4F)c(Cl)cc23)C[C@H]1C` (atropisomer, axis not shown; (M)) [Example 92-65, (M)-6-Chloro-7-(2,5-difluorophenyl)-4-[(2S,5R)-2,5-dimethyl-4-prop-2-enoyl-piperazin-1-yl]-1-(2-isopropyl-4-methyl-3-pyridyl)pyrido [2,3-d]pyrimidin-2-one] the same measures were over 7.5 µM, 0.066 µM and 0.046 µM.
As to `C=CC(=O)N1C[C@H](C)N(c2nc(=O)n(-c3c(C)nc(C(C)C)nc3C(C)C)c3nc(-c4ccccc4F)c(Cl)cc23)C[C@H]1C` (single isomer, unassigned) [Example 203], the IC50 in assay [1] (Homo sapiens, A549, 2 h) is over 7.5 µM; in assay [3] (Homo sapiens, MIA PaCa-2, 2 h), 0.243 µM. The “Coupled exchange IC50 (5 min; μM)” value in assay [2] turned out to be 0.223 µM.
Take `C=CC(=O)N1C[C@H](C)N(c2nc(=O)n(-c3c(C(C)C)cncc3C(C)C)c3nc(-c4c(O)cccc4F)c(F)cc23)C[C@H]1C` [Example 101-1, 1-(3,5-Diisopropyl-4-pyridyl)-4-[(2S,5R)-2,5-dimethyl-4-prop-2-enoyl-piperazin-1-y]-6-fluoro-7-(2-fluoro-6-hydroxy-phenyl)pyrido[2,3-d]pyrimidin-2-one]: the IC50 was over 7.5 µM in assay [1], 0.134 µM in assay [2] and 0.116 µM in assay [3].
With `C#Cc1nc(C)c(-n2c(=O)nc(N3C[C@@H](C)N(C(=O)C=C)C[C@@H]3C)c3cc(Cl)c(-c4ccccc4F)nc32)c(C(C)C)n1` (single isomer, unassigned) [Example 204], the IC50 in assay [1] (Homo sapiens, A549, 2 h) amounted to 3.01 µM; in assay [3] (Homo sapiens, MIA PaCa-2, 2 h), 0.091 µM. For the same compound, the “Coupled exchange IC50 (5 min; μM)” value in assay [2] stood at 0.066 µM.
Consider `C#Cc1ccc(F)c(-c2nc3c(cc2Cl)c(N2C[C@@H](C)N(C(=O)C=C)C[C@@H]2C)nc(=O)n3-c2c(C)ccnc2C(C)C)c1` (atropisomer, axis not shown; (M)) [Example 226, (M)-6-Chloro-4-[(2S,5R)-2,5-dimethyl-4-prop-2-enoyl-piperazin-1-yl]-7-(5-ethynyl-2-fluoro-phenyl)-1-(2-isopropyl-4-methyl-3-pyridyl)pyrido[2,3-d]pyrimidin-2-one], for which the values for the IC50 in assay [1], in assay [2] and in assay [3] were over 7.5 µM, 0.04 µM and 0.063 µM, respectively.
`C=CC(=O)N1C[C@H](C)N(c2nc(=O)n(-c3c(C)nc(Br)nc3C(C)C)c3nc(-c4ccccc4F)c(Cl)cc23)C[C@H]1C` (single isomer, unassigned) [Example 197-2]: the IC50 was over 7.5 µM in assay [1] (Homo sapiens, A549, 2 h) and 0.091 µM in assay [3] (Homo sapiens, MIA PaCa-2, 2 h). For the same compound, the “Coupled exchange IC50 (5 min; μM)” value in assay [2] is 0.01 µM.
With `C=CC(=O)N1C[C@H](C)N(c2nc(=O)n(-c3c(C)ccnc3C(C)C)c3nc(-c4c(F)cccc4NC(=O)OC)c(Cl)cc23)C[C@H]1C` (atropisomer, axis not shown; (M)) [Example 129-8, (M)-Methyl N-[2-[6-chloro-4-[(2S,5R)-2,5-dimethyl-4-prop-2-enoyl-piperazin-1-yl]-1-(2-isopropyl-4-methyl-3-pyridyl)-2-oxo-pyrido[2,3-d]pyrimidin-7-yl]-3-fluoro-phenyl]carbamate], the IC50 was over 7.5 µM in assay [1] (Homo sapiens, A549, 2 h); 0.056 µM in assay [2]; 0.023 µM in assay [3] (Homo sapiens, MIA PaCa-2, 2 h).
On the same counts, the results for `C=CC(=O)N1C[C@H](C)N(c2nc(=O)n(-c3c(C)ccnc3C(C)C)c3nc(-c4cc(O)ccc4F)c(Cl)cc23)C[C@H]1C` (atropisomer, axis not shown; (M)) [Example 92-34, (M)-6-Chloro-4-[(2S,5R)-2,5-dimethyl-4-prop-2-enoyl-piperazin-1-yl]-7-(2-fluoro-5-hydroxy-phenyl)-1-(2-isopropyl-4-methyl-3-pyridyl)pyrido [2,3-d]pyrimidin-2-one] are over 7.5 µM, 0.054 µM and 0.06 µM.
In the case of `C=CC(=O)N1C[C@H](C)N(c2nc(=O)n(-c3c(C(C)C)ncnc3C3CC3)c3nc(-c4ccccc4F)c(Cl)cc23)C[C@H]1C` (single isomer, unassigned) [Example 108-1-1], the IC50 in assay [1] was over 7.5 µM; in assay [2], 0.006 µM; in assay [3], 0.021 µM.

Broadly, the IC50 is the point on the concentration scale where inhibition reaches its midpoint.
